Experimental findings from US10738028B2, “Spiro three-membered ring, spiro five-membered ring peptide deformylase inhibitor and use thereof in antibacteria and anti-tumor” (priority 2016, dated 2020) are described below.

Converted amounts (≈) assume the structure as drawn. Like-named read-outs stand apart in the source and are kept apart here.

Format in all cases: cell-based
Test [1] concerns methicillin-resistant Staphylococcus aureus (MRSA). In words: MIC, two-fold agar dilution (CLSI), clinical isolates. Particulars: for Measured MIC: Table 8, strain and unit inferred, MRSA. The text has this: (§1) 1. The invention adopts the two-fold agar dilution method recommended by the operating procedure of antimicrobial susceptibility testing set by American Clinical and Laboratory Standards Institute (CLSI) to determine the Minimum Inhibitory Concentration (MIC) of the test samples against the tested strains.
A general note: Agar dilution tests growth on a series of plates holding different concentrations.

For test [2], the system named is HCT-116 colorectal cancer cell line. Kind of test: CCK-8 proliferation inhibition. Particulars: Homo sapiens, HCT-116, 72 h, read-out: HCT116 inhibition rate/%. The method, then:
(1) HCT-116 colorectal cancer cell line, A549 lung cancer cell line, MGC-803 gastric cancer cell line, BEL-7402 liver cancer cell line, Jurkat T cell leukemia cell line, HL60 acute myeloid leukemia cell line, Hela cervical cancer cell line, MCF-7 breast cancer cell line, PC3 prostate cancer cell line and SAOS-2 osteosarcoma cell line were made into single cell suspension, 180 μL of which was inoculated into 96-well culture plate, which was cultured overnight in CO2 incubator (37° C., 5% CO2, 95% air).
(2) Each of the spiro three-membered ring, spiro five membered ring peptide deformylase inhibitors was dissolved in DMSO, and was further formulated into drug solution with required different final concentration using corresponding cell culture medium. The drug solutions were added to the above cells respectively (20 μL/well), with the control group added with 1‰ DMSO, and cultured in a CO2 incubator for 72 hours.
(3) After incubation for 72 hours, the culture solution was decanted, and 100 μL of 1:10 diluted CCK-8 solution was added.
Wherein, in step (1), the concentration of the single cell suspension was 2000 cells/well.
Wherein, in step (2), HCT-116 cells were cultured in McCoy's 5A medium (containing 10% newborn bovine serum, 1% double antibody); A549 and PC3 cells were cultured in F12 medium (containing 10% newborn bovine serum, 1% double antibody); MGC-803, BEL-7402, SAOS-2, Jurkat and HL60 cells were cultured in 1640 medium (containing 10% newborn bovine serum, 1% double antibody); and MCF-7 and Hela cells were cultured in DMEM high glucose medium (containing 10% newborn bovine serum, 1% double antibody).

Test [3] relates to methicillin-sensitive Staphylococcus aureus (MSSA). In words: MIC, two-fold agar dilution (CLSI), clinical isolates.
From the text: as §1

In test [4] the test system is Escherichia coli (including ESBLs, non-ESBLs). The test is described as above.
From the text: as §1

The test system of test [5] is Enterococcus faecalis (EFA). The test is described as above.
From the text: as §1

Test [6] deals with methicillin-sensitive Staphylococcus epidermidis (MSSE). The description is as above.
From the text: as §1

Test [7] has as its system methicillin-resistant Staphylococcus epidermidis (MRSE). The test is described as above.
From the text: as §1

Test [8] has as its system Streptococcus pneoumoniae (SPN). The description is as above.
From the text: as §1

Test [9] has as its system Enterococcus faecium (EFM). The test is described as above.
From the text: as §1

Test [10] has as its system Moraxella catarrhalis (BCA). Described as above.
From the text: as §1

The mark [11] stands for this setting: strain printed MRSA 14-1 (second line of that name, r23, before MRSE 14-2).

Consider `CCCC[C@H](CN(O)C=O)C(=O)N1CCC[C@H]1C(=O)Nc1ccc(F)c[n+]1[O-]` [A, reference compound], for which the Measured MIC in test [1] was found to be 0.5 µg/mL.
Same read-out and setting: the same measure for `CCCC[C@H](CN(O)C=O)C(=O)N1CC=C[C@H]1C(=O)Nc1ccc(F)c[n+]1[O-]` [B, reference compound]: 1 µg/mL; for `C=C1C[C@@H](C(=O)Nc2ccc(F)c[n+]2[O-])N(C(=O)[C@H](CCCC)CN(O)C=O)C1` [C, reference compound]: 0.5 µg/mL; for `CCCC[C@H](CN(O)C=O)C(=O)N1CC2(CC2)C[C@H]1C(=O)Nc1ccc(F)c[n+]1[O-]` [D]: 0.125 µg/mL.
Turning to `CCCC[C@H](CN(O)C=O)C(=O)N1CC2(CC2)C[C@H]1C(=O)Nc1cc[nH]n1` [Example 1], in [2], the inhibition at 30 µM was found to be 7%. Moreover, the MIC (anti-bacterial activity) in test [3] (strain MSSA 14-1) came to 16 µg/mL (≈ 42.4 µM); in [3] (strain MSSA 14-2) it was 16 µg/mL (≈ 42.4 µM); in test [3] (strain MSSA 14-3) it was 16 µg/mL (≈ 42.4 µM); in test [3] (strain MSSA 14-4), 16 µg/mL (≈ 42.4 µM); in test [4] (strain ECO+ 14-1), 16 µg/mL (≈ 42.4 µM); in [4] (strain ECO+ 14-2), 128 µg/mL (≈ 339 µM). Besides, the MIC (anti-bacterial activity) in test [4] (strain ECO− 14-1) is over 128 µg/mL; in [4] (strain ECO− 14-2) it was over 128 µg/mL; in [5] (strain EFA 14-1), 64 µg/mL (≈ 170 µM); in [5] (strain EFA 14-2) it was 64 µg/mL (≈ 170 µM); in test [5] (strain EFA 14-3), 64 µg/mL (≈ 170 µM); in test [5] (strain EFA 14-5) it was over 128 µg/mL. Moreover, the MIC (anti-bacterial activity) in [6] (strain MSSE 14-1) was 4 µg/mL (≈ 10.6 µM); in test [6] (strain MSSE 14-2) it was 16 µg/mL (≈ 42.4 µM); in [6] (strain MSSE 14-3), 4 µg/mL (≈ 10.6 µM); in [6] (strain MSSE 14-4) it was 4 µg/mL (≈ 10.6 µM); in test [7] (strain MRSE 14-2), 8 µg/mL (≈ 21.2 µM); in test [7] (strain MRSE 14-3), 4 µg/mL (≈ 10.6 µM). For the same compound, the MIC (anti-bacterial activity) in test [7] (strain MRSE 14-4) was 8 µg/mL (≈ 21.2 µM); in [1] (strain MRSA 14-1), 16 µg/mL (≈ 42.4 µM); in test [1] (strain MRSA 14-2), 32 µg/mL (≈ 84.8 µM); in test [1] (strain MRSA 14-4), 16 µg/mL (≈ 42.4 µM); in [1] (strain MRSA 14-5), 8 µg/mL (≈ 21.2 µM); in [1] (setting [11]), 8 µg/mL (≈ 21.2 µM).
For the compound `CCCC[C@H](CN(O)C=O)C(=O)N1CC2(CC2)C[C@H]1C(=O)Nc1ncccc1F` [Example 5], the inhibition at 30 µM in [2] (concentration of 30 μM, 72 hours, CCK-8) was -15%. In addition, the MIC (anti-bacterial activity) in [3] (strain MSSA 14-1) turned out to be 0.5 µg/mL (≈ 1.23 µM); in [3] (strain MSSA 14-2) it was 0.5 µg/mL (≈ 1.23 µM); in test [3] (strain MSSA 14-3), 0.5 µg/mL (≈ 1.23 µM); in test [3] (strain MSSA 14-4), 0.5 µg/mL (≈ 1.23 µM); in test [4] (strain ECO+ 14-1) it was 2 µg/mL (≈ 4.92 µM); in test [4] (strain ECO+ 14-2) it was 64 µg/mL (≈ 157 µM). The MIC (anti-bacterial activity) in [4] (strain ECO− 14-1) was over 64 µg/mL; in test [4] (strain ECO− 14-2), 64 µg/mL (≈ 157 µM); in test [5] (strain EFA 14-1), 2 µg/mL (≈ 4.92 µM); in [5] (strain EFA 14-2), 2 µg/mL (≈ 4.92 µM); in test [5] (strain EFA 14-3), 2 µg/mL (≈ 4.92 µM); in [5] (strain EFA 14-5), 2 µg/mL (≈ 4.92 µM). Also, the MIC (anti-bacterial activity) was determined as 0.125 µg/mL (≈ 0.308 µM) in test [6] (strain MSSE 14-1); 0.25 µg/mL (≈ 0.615 µM) in [6] (strain MSSE 14-2); 0.25 µg/mL (≈ 0.615 µM) in [6] (strain MSSE 14-3); 0.25 µg/mL (≈ 0.615 µM) in test [6] (strain MSSE 14-4); 0.25 µg/mL (≈ 0.615 µM) in test [7] (strain MRSE 14-2); 0.125 µg/mL (≈ 0.308 µM) in test [7] (strain MRSE 14-3). Also, the MIC (anti-bacterial activity) in test [7] (strain MRSE 14-4) came to 0.5 µg/mL (≈ 1.23 µM); in test [1] (strain MRSA 14-1) it was 0.5 µg/mL (≈ 1.23 µM); in test [1] (strain MRSA 14-2), 0.5 µg/mL (≈ 1.23 µM); in test [1] (strain MRSA 14-4), 0.5 µg/mL (≈ 1.23 µM); in [1] (strain MRSA 14-5), 0.25 µg/mL (≈ 0.615 µM); in test [1] (setting [11]), 0.25 µg/mL (≈ 0.615 µM).
`C[C@H]1COc2c(N3CCN(C)CC3)c(F)cc3c(=O)c(C(=O)O)cn1c23` [levofloxacin, reference compound]: the Anti-bacterial activity (MIC) was found to be 16 µg/mL in test [3] (strain MSSA 15-3); 0.5 µg/mL in test [3] (strain MSSA 15-4); 64 µg/mL in test [3] (strain MSSA 15-5); 16 µg/mL in test [3] (strain MSSA 15-6); 64 µg/mL in [4] (strain ECO+ 15-2); 1 µg/mL in [4] (strain ECO+ 15-4). In addition, the Anti-bacterial activity (MIC) is 0.03 µg/mL in [4] (strain ECO− 15-1); 128 µg/mL in [4] (strain ECO− 15-2); 0.06 µg/mL in [4] (strain ECO− 15-3); 0.06 µg/mL in test [4] (strain ECO− 15-4); over 128 µg/mL in test [5] (strain EFA 15-1); over 128 µg/mL in test [5] (strain EFA 15-2). Further, the Anti-bacterial activity (MIC) in [5] (strain EFA 15-4) is 1 µg/mL; in test [5] (strain EFA 15-5), 1 µg/mL; in test [5] (strain EFA 15-6), over 128 µg/mL; in [5] (strain EFA 15-9), 128 µg/mL; in test [8] (strain SPN 16-2), 1 µg/mL; in [8] (strain SPN 16-4), 1 µg/mL. In addition, the Anti-bacterial activity (MIC) in test [6] (strain MSSE 15-3) is 0.5 µg/mL; in test [6] (strain MSSE 15-4) it was 0.5 µg/mL; in [6] (strain MSSE 15-5), 0.5 µg/mL; in test [6] (strain MSSE 15-6), 0.25 µg/mL; in [7] (strain MRSE 15-1) it was 16 µg/mL; in test [7] (strain MRSE 15-2), 16 µg/mL. Besides, the Anti-bacterial activity (MIC) in [7] (strain MRSE 15-3) was 16 µg/mL; in test [7] (strain MRSE 15-7), 16 µg/mL; in [9] (strain EFM 15-1), over 128 µg/mL; in [9] (strain EFM 15-2), over 128 µg/mL; in test [9] (strain EFM 15-3), over 128 µg/mL; in [9] (strain EFM 15-4), over 128 µg/mL. Besides, the Anti-bacterial activity (MIC) is over 128 µg/mL in test [9] (strain EFM 15-5); 128 µg/mL in test [9] (strain EFM 15-6); 64 µg/mL in test [1] (strain MRSA 15-1); over 128 µg/mL in [1] (strain MRSA 15-2); over 128 µg/mL in test [1] (strain MRSA 15-3); over 128 µg/mL in test [1] (strain MRSA 15-4). For the same compound, the Anti-bacterial activity (MIC) in [10] (strain BCA 14-1) was found to be 1 µg/mL; in test [10] (strain BCA 14-5) it was 4 µg/mL; in test [10] (strain BCA 14-6), 8 µg/mL; in [10] (strain BCA 14-8) it was 1 µg/mL.
